Assays:
[1] = tested on: phenylquinone writhing syndrome; assay: Phenylquinone writhing test (analgesic activity); assay type: in vivo; conditions: mice
Experimental: In this test, groups of 10-20 mice are injected subcutaneously or orally with different doses of the test compound. At predetermined time intervals, the mice receive 2.5 mg./kg. phenylquinone intraperitoneally. The total number of writhing episodes is counted for each mouse for 10 min. and the average percent decrease in writhing recorded for each dose.
The novel styrylsulfonylamidines of Formula V in addition to being useful as precursors to the styrylamidine products of Formula I have analgesic utility as measured in the foregoing phenylquinone writhing test. A preferred class of styrylsulfonylamidines of Formula V having particularly significant analgesic activity are those wherein R1 and R2 are each hydrogen, nitro or halogen and A is phenyl or lower alkyl of from 1 to 8 carbon atoms inclusive. Analgesic activity at the time interval indicated following administration of compounds representative of this class are given in Table I below.

[2] = tested on: CNS; assay: CNS effects after oral or intraperitoneal administration to the mouse; assay type: in vivo
Experimental: 5,6-Dihydro-4-methyl-5-(4-nitrophenyl)-3-phenyl-4H-1,2,4-thiadiazine 1,1-dioxide was not effective in preventing the phenylquinone writhing syndrome in mice at an oral dose of 100 mg./kg. body weight or subcutaneous dose of 6 mg./kg. body weight.

[3] = tested on: mouse electroshock; assay: Mouse electroshock test of Swinyard (anticonvulsant); assay type: in vivo; conditions: 250 mg./kg. body weight
Text: Aside from antithrombogenic and analgesic effects, compounds of Formula I wherein R1 and R2 substituents are halogen (particularly chlorine), R3 is hydrogen or methyl and A is selected from the group consisting of lower alkyl of from 1 to 8 carbon atoms inclusive or cycloalkyl of from 3 to 6 carbon atoms inclusive, are useful as anticonvulsant, hypotensive and antihypertensive agents. […] For example, N-(2,6-dichlorostyryl)acetamidine in the mouse electroshock test of E. A. Swinyard, J. Amer. Pharm.

[4] = tested on: blood pressure; assay: Blood pressure and heart rate in anesthetized normotensive dog; assay type: in vivo
Experimental: (§1) For instance, at 1.0 mg./kg. body weight, this compound provides a 33% reduction in blood pressure while at 10.0 mg./kg. body weight, a 64% reduction in blood pressure is obtained. In the same test procedure, the prior art cinnamylamidine, N-(4-chlorocinnamyl)acetamidine, provided a 12% increase in blood pressure with a 6% decrease in heart rate at a dose of 1.0 mg./kg. body weight. At a dose of 10.0 mg./kg. body weight, the prior art cinnamylamidine provides an increase of 26% in blood pressure.

[5] = tested on: blood pressure; assay: Blood pressure in spontaneous hypertensive rat; assay type: in vivo; conditions: 50 mg./kg.
Experimental: as §1

[6] = tested on: urine output; assay: Lipschitz diuretic test; assay type: in vivo; conditions: oral dose 30 mg./kg. body weight
Text: N-(2,6-dichlorostyryl)acetamidine is orally effective as a diuretic agent according to the W. L. Lipschitz, et al., J. Pharmacol. Expt.

[7] = as reported in U.S. Pat. No. 3,413,345; cited from earlier work

With `CN1C(c2ccccc2)=NS(=O)(=O)CC1c1ccc([N+](=O)[O-])cc1` (centres unmarked) [5,6-dihydro-4-methyl-5-(4-nitrophenyl)-3-phenyl-4H-1,2,4-thiadiazine 1,1-dioxide] the “Prevention of the phenylquinone writhing syndrome” value ([1]; oral dose 100 mg./kg. body weight) was “not effective”, the “Prevention of the phenylquinone writhing syndrome” value ([1]; subcutaneous dose 6 mg./kg. body weight) was “not effective” and the “CNS effect” value [2] was “non-specific CNS depression”.

With `CC(=N)NCC=Cc1ccc(Cl)cc1` [N-(4-chlorocinnamyl)acetamidine, reference compound] the “Activity in mouse electroshock test” value [3] was “completely inactive”, the “Decrease in heart rate” value ([4]; 1.0 mg./kg.) was 6% and the “Increase in blood pressure” value ([4]; 1.0 mg./kg.) was 12%. The “Increase in blood pressure” value ([4]; 10.0 mg./kg.) was 26%, the “Antihypertensive effect” value [5] was “devoid of antihypertensive effects” and the “Change in blood pressure” value [5] was “slight increase in blood pressure”. The “Diuretic activity” value [6] was “essentially inactive” and the “Hypotensive effect” value [7] was “hypotensive effects which are quick in onset and of considerable duration”.

Source: patent US4052455A, “Styrylamidines” (Mead Johnson & Company, priority 1975, dated 1977)
